Assay [1] can be described thus: Enzymatic activity of mammalian ASTs transiently expressed in 293 EBNA cells. It is filed as biochemical. On the procedure: A forward primer and a reverse primer were prepared on gene sequences encoding the N-terminal and C-terminal of each mammalian AST, and a cDNA encoding the full-length AST was prepared by a PCR amplification using the forward primer, the reverse primer, Pyrobest DNA polymerase (produced by Takara Shuzo Co.), and an airway cDNA as a template. On the other hand, a product obtained by cleaving pcDNA3 (produced by Invitrogen Corp.) with restriction enzymes NruI and KpnI, and the promoter domain of Elongation Factor-1a (EF-1 a) from human genome were amplified by a PCR using a forward primer: […] and a reverse primer: […]. […]
Human fetal kidney-originated 293 EBNA cells (Invitrogen Corp.) were cultured in a 10 cm schale, and the about 5.8×10^6 cells were transfected with 28 μg of each expression plasmid prepared in (1) in 56 μL of LipofectAMINE 2000 (produced by GibcoBRL Corp.) according to an appended manual. […] 40 μL of the above-described assay sample was mixed with 20 μL of a synthetic substrate solution (a solution obtained by diluting a 10 mM Boc-Phe-Ser-Arg-MCA DMSO (dimethyl sulfoxide) solution with the buffer solution for the AST activity assay 50 times), and the increase of the fluorescence intensity per minute was assayed (fluorescence wavelength: 460 nm, excitation wavelength: 380 nm) to determine the enzymatic activity.

Assay [2] deals with HB-EGF on surface of H292 cell membrane. Put plainly: Surface antigen analysis (FACS) of HB-EGF on NCI-H292 cell membrane. It is filed as cell-based, human. On the procedure: NCI-H292 cells (purchased from ATCC) were cultured on a 10 cm dish in 10% FCS-containing RPMI-1640 until to reach a confluent state, subjected to the replacement of the culture medium by RPMI-1640 containing 0.1% of BSA, and further cultured for 24 hours. The cultured cells were washed with PBS, treated and floated in PBS containing 5 mM of EDTA at 37° C. for five minutes, and then suspended in 0.1%BSA-containing RPMI-1640 in a density of 1.0×10^7 cells/mL.
The above-described cell suspension and 0.1% BSA-containing RPMI-1640 containing HAST in a double concentration (600 mU/mL) were mixed with each other in equivalent amounts, respectively, and reacted with each other at 37° C. for 30 minutes (final cell concentration: 5.0×10^6 cells/mL, final HAST concentration: 300 mU/mL). The reaction solution was mixed with ice-cooled 1% FCS-containing PBS in a volume of 5 times that of the reaction solution to stop the reaction, and the treated solution was then supplied for a surface antigen analysis.
The cells subjected to the prescribed treatments were suspended in 1% FCS-containing PBS in a density of 1.0×10^7 cells/mL. 100 μL of the prepared cell suspension was mixed with a primary antigen (EGF back ground dyeing: 1 μg of normal mouse IgG1 (produced by R & D Corp.), EGF dyeing: 1 μg of an anti-EGF mouse monoclonal antibody (produced by R & D Corp.), HB-EGF back ground dyeing: free from the primary antigen, HB-EGF dyeing: 2 μg of an anti-HB-EGF goat polyclonal antibody (produced by R & D Corp.)) and reacted on ice for 30 minutes. The reaction product was once washed with 5 mL of 1% FCS-containing PBS, mixed with 2 μg of a secondary antigen (EGF back ground dyeing and EGF dyeing: FITC conjugated F(ab′)2 fragment to mouse IgG (produced by Dako Corp.), HB-EGF back ground dyeing and HB-EGF dyeing: Swine Anti-Goat Ig's Fluorescein Conjugate (produced by KPL Corp.)), and then reacted on ice for 30 minutes. The reaction solution was once washed with 5 mL of 1% FCS-containing PBS, and then mixed with Cell Fix (produced by Becton Dickinson Corp.) to immobilize the cells. The expression of the surface antigen was assayed with FACS Calibur (produced by Becton Dickinson Corp.) and analyzed with Cell Quest (produced by Becton Dickinson Corp.). Average fluorescence intensities were shown in the next table as the indicators of expression intensities.
HAST (600 mU/mL) was reacted with leupeptin (10 μM) or BB1101 (5 μM) in 0.1% BSA-containing RPMI-1640 on ice for 30 minutes, and the reaction solution was mixed with the equivalent amount of a cell suspension preliminarily treated with leupeptin (10 μM) or BB1101 (5 μM) at 37° C. for 30 minutes, and further treated at 37° C. for 30 minutes (final HAST concentration: 300 mU/mL, final leupeptin concentration: 10 μM, final BB1101 concentration: 5 μM, final cell concentration: 5.0×10^6 cells/mL). The reaction solution was mixed with ice-cooled 1% FCS-containing PBS in an amount of five times that of the reaction solution to stop the reaction, and then supplied for the surface antigen analysis.
The cells subjected to the prescribed treatments were suspended in 1% FCS-containing PBS in a density of 1.0×10^7 cells/mL. […]

The record followed here is patent US20040038369A1, “Airway-specific trypsin-like enzymes and method of using the same” (priority 2000, published 2004).

On to “HAST: human airway-specific trypsin-like enzyme; propeptide moiety bound to trypsin-like protein moiety via a disulfide bond”, for which the “Cell lysate Fluorescence intensity ratio (Human:100)” value in assay [1] (293 EBNA cell lysate, three days after transfection) is listed as 100. The “Sup Fluorescence intensity ratio (Human:100)” value in assay [1] (293 EBNA, Sup) was 100. Also, the “cleavage of proHB-EGF on the surfaces of the cell membranes” value in assay [2] (HAST 300 mU/mL) is on record as “cleaved”. Besides, the “HB-EGF expression intensity on the surfaces of the cell membranes (average fluorescence intensity)” value in assay [2] (HAST 300 mU/mL, 37° C., 30 minutes, Back ground 4.5, PBS 8.72) was 6.94; in assay [2] (inhibitor experiment, HAST 300 mU/mL alone, Back ground 5.58, PBS 8.61), 6.26.
